For series [1], the system named is Advillin^Cre and Mecp^2f/y mice and control littermates. Nature of the series: Magnitude of startle response to a 125 dB noise. As to conditions: i.p., 2 mg/kg vs saline, all mice. Type of series: in vivo. Here is the method:
FIG. 3 is a graph showing magnitude of startle response to a 125 dB noise in mice following i.p. administration of either saline or 2 mg/kg midazolam treatment. Responses are expressed as percent of startle response to a 125 dB noise. Two-way ANOVA with post-hoc Sidak's test, *, p<0.05.

Series [2] shares this test system. Briefly: Tactile prepulse inhibition (PPI): startle response to a 125 dB noise preceded by a light air puff. It counts as in vivo. To be noted: i.p., 2 mg/kg vs saline, both Mecp2 mutants and controls. Here is the method:
FIG. 1 is a graph showing percent inhibition of the startle response to a 125 dB noise, when the startle noise is preceded by a light air puff in mice following i.p. administration of either saline or 2 mg/kg midazolam treatment. Two-way ANOVA with post-hoc Sidak's test, *, p<0.05.

Molecules are shown by their SMILES.

Regarding `Cc1ncc2n1-c1ccc(Cl)cc1C(c1ccccc1F)=NC2` [midazolam], the sedation entry in series [1] (evidenced by startle amplitude) was “caused significant sedation”. Besides, the “reduction in startle amplitude” value in series [1] (startle to 125 dB noise) is around 50%. Also, the “tactile sensitivity (percent inhibition of the startle response to a 125 dB noise when preceded by a light air puff, tactile PPI)” value in series [2] is reported as “significantly attenuated tactile sensitivity”.

The values are drawn from US12077512B2, “Compositions and methods for reducing tactile dysfunction, anxiety, and social impairment” (President and Fellows of Harvard College, priority 2019, dated 2024).
